Test results reported in the supplement of paper PMC10307832.

Columns and labels:
Assay in all cases: relative viability (nuclei count vs DMSO), 5 days (fraction); higher = more cells survive
IPA-3 + Navitoclax = compound: C1=CC=C2C(=C1)C=CC(=C2SSC3=C(C=CC4=CC=CC=C43)O)O [IPA-3] + CC1(C)CCC(c2ccc(Cl)cc2)=C(CN2CCN(c3ccc(C(=O)NS(=O)(=O)c4ccc(N[C@H](CCN5CCOCC5)CSc5ccccc5)c(S(=O)(=O)C(F)(F)F)c4)cc3)CC2)C1 [Navitoclax] (partner 0.5 µM)
In short: (§1)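 Dosing by pin tool came one day after lung cancer cell lines were seeded in 1536-well plates, using either one drug or a fixed anchor-drug dose plus five library-drug doses (not always all listed) in √10 steps. After 5 days, nuclei were counted on 4× images. Relative viability is treated-well nuclei count divided by vehicle-well nuclei count, and values are medians of duplicate plates.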

IPA-3 + Lapatinib = compound: C1=CC=C2C(=C1)C=CC(=C2SSC3=C(C=CC4=CC=CC=C43)O)O [IPA-3] + CS(=O)(=O)CCNCc1ccc(-c2ccc3ncnc(Nc4ccc(OCc5cccc(F)c5)c(Cl)c4)c3c2)o1 [Lapatinib] (partner 2 µM)
In short: as §1

Doramapimod + Bortezomib = compound: Cc1ccc(-n2nc(C(C)(C)C)cc2NC(=O)Nc2ccc(OCCN3CCOCC3)c3ccccc23)cc1 [Doramapimod] + CC(C)C[C@H](NC(=O)[C@H](Cc1ccccc1)NC(=O)c1cnccn1)B(O)O [Bortezomib] (partner 0.002 µM)
In short: as §1

Doramapimod + Linsitinib = compound: Cc1ccc(-n2nc(C(C)(C)C)cc2NC(=O)Nc2ccc(OCCN3CCOCC3)c3ccccc23)cc1 [Doramapimod] + C[C@]1(O)C[C@@H](c2nc(-c3ccc4ccc(-c5ccccc5)nc4c3)c3c(N)nccn32)C1 [Linsitinib] (partner 1 µM)
In short: as §1

Cell Line | relative viability (IPA-3 + Navitoclax; first compound 0.2 µM) | relative viability (IPA-3 + Navitoclax; first compound 0.6325 µM) | relative viability (IPA-3 + Navitoclax; first compound 2 µM) | relative viability (IPA-3 + Navitoclax; first compound 6.325 µM) | relative viability (IPA-3 + Navitoclax; first compound 20 µM) | relative viability (IPA-3 + Lapatinib; first compound 0.2 µM) | relative viability (IPA-3 + Lapatinib; first compound 0.6325 µM) | relative viability (IPA-3 + Lapatinib; first compound 2 µM) | relative viability (IPA-3 + Lapatinib; first compound 6.325 µM) | relative viability (IPA-3 + Lapatinib; first compound 20 µM) | relative viability (Doramapimod + Bortezomib; first compound 0.02 µM) | relative viability (Doramapimod + Bortezomib; first compound 0.06325 µM) | relative viability (Doramapimod + Bortezomib; first compound 0.2 µM) | relative viability (Doramapimod + Bortezomib; first compound 0.6325 µM) | relative viability (Doramapimod + Bortezomib; first compound 2 µM) | relative viability (Doramapimod + Linsitinib; first compound 0.02 µM) | relative viability (Doramapimod + Linsitinib; first compound 0.06325 µM) | relative viability (Doramapimod + Linsitinib; first compound 0.2 µM) | relative viability (Doramapimod + Linsitinib; first compound 0.6325 µM) | relative viability (Doramapimod + Linsitinib; first compound 2 µM)
NCI-H1355 | 1.08 | 0.867 | 0.999 | 1.03 | 1.09 | 1.11 | 0.968 | 0.941 | 0.966 | 1.01 | 1.23 | 1.29 | 1.29 | 1.19 | 1.16 | 0.804 | 0.819 | 0.824 | 0.908 | 0.779
EKVX | 1.05 | 0.608 | 1.05 | 0.851 | 1.23 | 0.198 | 0.201 | 0.204 | 0.225 | 0.217 | 1.04 | 0.997 | 1.08 | 0.967 | 1.11 | 1.03 | 0.972 | 0.902 | 1.15 | 0.95
NCI-H441 | 0.814 | – | 0.405 | 0.216 | 0.771 | – | – | – | – | – | 0.308 | – | 0.522 | 0.362 | 0.266 | 0.528 | 0.512 | 0.541 | 0.553 | 0.442
NCI-H1975 | 1.22 | 0.932 | 1.06 | 1.17 | 1.17 | 1.18 | 0.888 | 0.964 | 0.889 | 0.927 | 0.321 | 0.324 | 0.266 | 0.363 | 0.327 | 1.07 | 0.956 | 0.885 | 0.98 | 0.926
NCI-H1563 | – | – | – | – | – | 0.968 | 0.657 | 0.871 | 1.01 | 0.907 | 0.871 | 0.88 | 0.993 | 1.17 | 0.873 | 1.17 | 1.23 | 1.25 | 1.25 | 1.2
NCI-H2170 | 0.702 | 0.614 | 0.552 | 0.507 | 0.504 | 0.269 | 0.259 | 0.274 | 0.274 | 0.267 | – | – | – | – | – | – | – | – | – | –
NCI-H1395 | 1.13 | 1.05 | 1.13 | 1.16 | 1.57 | 0.994 | 0.86 | 0.903 | 0.999 | 1.29 | – | – | – | – | – | 1.11 | 1.04 | 1.17 | 1.13 | 0.997
NCI-H1944 | 1.07 | 0.899 | 1.1 | 1.07 | 1.02 | 0.803 | 0.763 | 0.814 | 1.04 | 0.791 | – | – | – | – | – | 1.05 | 1.14 | 1.03 | 1.31 | 1.08
NCI-H1650 | 1.37 | 1.26 | 1.12 | 1.09 | 1.34 | 0.925 | 0.176 | 0.802 | 0.893 | 0.774 | 0.232 | 0.23 | 0.194 | 0.191 | 0.189 | – | – | – | – | –
ChaGo-K-1 | 1.07 | 1 | 0.836 | 1.06 | 1.17 | – | – | – | – | – | 1.04 | 1.29 | 1.29 | – | 0.646 | – | – | – | – | –
NCI-H650 | – | – | – | – | – | 1.22 | 0.955 | 0.802 | 0.857 | 1.3 | 0.882 | 1.11 | 1.03 | 0.737 | 0.874 | 0.93 | 1.03 | 1.08 | 0.923 | 0.785
NCI-H661 | – | – | – | – | – | 0.445 | 0.472 | 0.584 | 0.447 | 0.537 | 0.793 | 0.794 | 0.719 | 0.942 | 0.667 | 0.634 | 0.568 | 0.555 | 0.741 | 0.599
ABC-1 | – | – | – | – | – | 1.1 | 1.06 | 1.23 | 1.37 | 1.29 | 0.297 | 0.302 | 0.262 | 0.345 | 0.296 | 0.876 | 0.944 | 0.744 | 0.942 | 0.806
LK-2 | 0.983 | 0.881 | 0.81 | 1.05 | 1.17 | 1.13 | 0.877 | 0.959 | 0.9 | 0.821 | – | – | – | – | – | 0.284 | 0.388 | 0.348 | 0.42 | 0.22
SK-MES-1 | 1.26 | 1.12 | 1.3 | – | 1.04 | 0.524 | 0.431 | 0.487 | 0.423 | 0.449 | – | – | – | – | – | 1.08 | 1 | 0.996 | 1.09 | 0.909
NCI-H1793 | 0.518 | 0.37 | 0.395 | 0.44 | 0.594 | 0.834 | 0.539 | 0.909 | 0.776 | 0.702 | – | – | – | – | – | 0.758 | 0.76 | 0.827 | 0.932 | 0.719
A549 | 1.27 | 1.21 | 1.39 | 1.28 | 1.18 | 1.07 | 0.897 | 1.01 | 1 | 0.981 | – | – | – | – | – | 0.551 | 0.532 | 0.567 | 0.794 | 0.523
LCLC-103H | – | – | – | – | – | – | – | – | – | – | 1.19 | 0.986 | 1.04 | 1.2 | 1.03 | 0.99 | 1.06 | 1.09 | 1.09 | 1.03
NCI-H358 | – | – | – | – | – | 0.532 | 0.47 | 0.445 | 0.51 | 0.413 | – | – | – | – | – | 0.68 | 0.598 | 0.611 | 0.722 | 0.667
